Source: patent publication US12258327B2, “5-membered heteroaryl-containing aminopyridine compounds as EGFR inhibitors” (YUHAN CORPORATION, priority 2021, dated 2025)
Like-named read-outs stand apart in the source and are kept apart here.

Key:
Conditions in all cases: 100 μM ATP
EGFR del19/T790M/C797S = EGFR del19/T790M/C797S (Homo sapiens, UniProt P00533, C797S/DEL746-750/T790M); experiment: Biochemical EGFR kinase assay (Lance Ultra TR-FRET), triple mutant del19/T790M/C797S
Procedure: (§1) Biochemical EGFR kinase assays were conducted using Lance Ultra time-resolved fluorescence resonance energy transfer (TR-FRET) technology from Perkin-Elmer. Compounds of the invention were initially diluted to 20 mM in 100% DMSO for storage and made into kinase buffer solution to create a compound concentration ranging from 0.003 μM and 10 μM.
(§2) Each kinase reactions were incubated at room temperature for 1 hour and then stopped by the addition of 4 μL of stop solution (10 mM EDTA). The specific Europium-labeled-anti-phosphopeptide antibody (PerkinElmer, AD0069) diluted in LANCE detection buffer was then added to a final concentration of 2 nM. After 60 minutes incubation at room temperature the LANCE signal was measured on an EnVision Multilabel Reader (Perkin-Elmer). Excitation wavelength was set at 320 nm and emission monitored at 615 nm (donor) and 665 nm (acceptor). The IC50 values were determined using GraphPad prism software (GraphPad Software, Inc., San Diego, CA, USA).

EGFR L858R/T790M/C797S = EGFR L858R/T790M/C797S (Homo sapiens, UniProt P00533, C797S/L858R/T790M); experiment: Biochemical EGFR kinase assay (Lance Ultra TR-FRET), triple mutant L858R/T790M/C797S
Procedure: as §1, §2

EGFR del19/C797S = EGFR del19/C797S (Homo sapiens, UniProt P00533, C797S/DEL746-750); experiment: Biochemical EGFR kinase assay (Lance Ultra TR-FRET), double mutant del19/C797S
Chain of EGFR del19/C797S (P00533 with tags, fused parts or gaps DEL746-750/C797S): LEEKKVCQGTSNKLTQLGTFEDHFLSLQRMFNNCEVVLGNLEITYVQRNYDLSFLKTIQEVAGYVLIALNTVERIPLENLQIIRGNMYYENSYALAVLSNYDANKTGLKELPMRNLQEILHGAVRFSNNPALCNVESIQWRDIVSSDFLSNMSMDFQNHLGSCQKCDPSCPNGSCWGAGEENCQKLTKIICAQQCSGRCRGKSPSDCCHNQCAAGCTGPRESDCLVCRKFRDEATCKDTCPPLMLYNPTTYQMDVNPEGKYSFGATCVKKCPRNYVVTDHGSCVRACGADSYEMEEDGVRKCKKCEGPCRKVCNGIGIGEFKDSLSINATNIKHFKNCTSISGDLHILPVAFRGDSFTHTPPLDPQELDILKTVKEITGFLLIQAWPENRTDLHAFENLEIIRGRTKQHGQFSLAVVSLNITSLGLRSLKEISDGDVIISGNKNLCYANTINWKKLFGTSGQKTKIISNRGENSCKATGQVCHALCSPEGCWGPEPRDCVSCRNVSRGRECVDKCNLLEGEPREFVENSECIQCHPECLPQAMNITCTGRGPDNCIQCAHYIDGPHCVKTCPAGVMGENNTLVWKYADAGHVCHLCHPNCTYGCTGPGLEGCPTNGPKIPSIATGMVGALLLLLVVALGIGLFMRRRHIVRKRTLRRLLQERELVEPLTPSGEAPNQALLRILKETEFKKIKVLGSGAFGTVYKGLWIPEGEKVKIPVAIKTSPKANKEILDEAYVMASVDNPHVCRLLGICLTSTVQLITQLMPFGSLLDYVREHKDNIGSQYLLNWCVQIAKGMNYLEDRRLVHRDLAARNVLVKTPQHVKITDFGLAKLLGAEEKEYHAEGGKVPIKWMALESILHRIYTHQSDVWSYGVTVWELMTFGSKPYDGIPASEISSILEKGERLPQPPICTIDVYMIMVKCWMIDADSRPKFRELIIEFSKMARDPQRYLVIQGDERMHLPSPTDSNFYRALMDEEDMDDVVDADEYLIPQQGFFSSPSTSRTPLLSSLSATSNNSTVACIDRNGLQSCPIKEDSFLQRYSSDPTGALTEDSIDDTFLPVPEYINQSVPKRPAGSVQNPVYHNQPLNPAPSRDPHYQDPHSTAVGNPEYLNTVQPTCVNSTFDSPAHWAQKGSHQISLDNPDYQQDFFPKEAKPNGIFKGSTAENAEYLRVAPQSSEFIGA
Procedure: as §1, §2

EGFR L858R/C797S = EGFR L858R/C797S (Homo sapiens, UniProt P00533, C797S/L858R); experiment: Biochemical EGFR kinase assay (Lance Ultra TR-FRET), double mutant L858R/C797S
Chain of EGFR L858R/C797S (P00533 25-1210 C797S/L858R): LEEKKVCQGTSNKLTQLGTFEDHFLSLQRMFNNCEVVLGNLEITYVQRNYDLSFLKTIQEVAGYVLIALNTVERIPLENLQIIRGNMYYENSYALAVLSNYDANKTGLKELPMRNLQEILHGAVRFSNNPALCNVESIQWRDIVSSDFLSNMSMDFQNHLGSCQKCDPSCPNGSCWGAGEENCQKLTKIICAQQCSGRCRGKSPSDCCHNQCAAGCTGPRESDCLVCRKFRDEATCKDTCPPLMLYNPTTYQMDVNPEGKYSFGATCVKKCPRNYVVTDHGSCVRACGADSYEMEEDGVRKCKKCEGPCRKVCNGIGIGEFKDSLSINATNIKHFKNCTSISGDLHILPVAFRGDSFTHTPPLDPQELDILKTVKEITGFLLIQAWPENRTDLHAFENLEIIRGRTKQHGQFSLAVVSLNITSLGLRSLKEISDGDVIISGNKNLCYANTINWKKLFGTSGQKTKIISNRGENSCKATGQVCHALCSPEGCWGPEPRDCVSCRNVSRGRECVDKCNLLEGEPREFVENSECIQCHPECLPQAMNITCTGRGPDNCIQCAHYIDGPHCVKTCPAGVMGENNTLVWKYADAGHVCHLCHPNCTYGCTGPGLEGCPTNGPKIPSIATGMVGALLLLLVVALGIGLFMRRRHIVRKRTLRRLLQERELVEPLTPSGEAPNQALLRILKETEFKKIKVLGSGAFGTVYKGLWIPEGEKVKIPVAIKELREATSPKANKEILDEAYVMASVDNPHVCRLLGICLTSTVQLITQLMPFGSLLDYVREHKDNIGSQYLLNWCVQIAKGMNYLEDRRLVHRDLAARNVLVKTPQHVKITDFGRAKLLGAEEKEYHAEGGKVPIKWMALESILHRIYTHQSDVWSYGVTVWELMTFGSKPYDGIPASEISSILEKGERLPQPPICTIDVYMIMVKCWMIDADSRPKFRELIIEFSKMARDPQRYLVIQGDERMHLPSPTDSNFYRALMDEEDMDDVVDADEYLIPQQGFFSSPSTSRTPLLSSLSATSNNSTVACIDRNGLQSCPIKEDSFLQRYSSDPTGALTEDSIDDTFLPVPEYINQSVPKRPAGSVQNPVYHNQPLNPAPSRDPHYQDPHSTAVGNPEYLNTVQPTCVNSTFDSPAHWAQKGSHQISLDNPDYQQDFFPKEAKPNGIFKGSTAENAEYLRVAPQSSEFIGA
Procedure: as §1, §2

EGFR wildtype (WT) = EGFR wildtype (WT) (Homo sapiens, UniProt P00533); experiment: Biochemical EGFR kinase assay (Lance Ultra TR-FRET), wildtype
Chain of EGFR wildtype (WT) (P00533 25-1210): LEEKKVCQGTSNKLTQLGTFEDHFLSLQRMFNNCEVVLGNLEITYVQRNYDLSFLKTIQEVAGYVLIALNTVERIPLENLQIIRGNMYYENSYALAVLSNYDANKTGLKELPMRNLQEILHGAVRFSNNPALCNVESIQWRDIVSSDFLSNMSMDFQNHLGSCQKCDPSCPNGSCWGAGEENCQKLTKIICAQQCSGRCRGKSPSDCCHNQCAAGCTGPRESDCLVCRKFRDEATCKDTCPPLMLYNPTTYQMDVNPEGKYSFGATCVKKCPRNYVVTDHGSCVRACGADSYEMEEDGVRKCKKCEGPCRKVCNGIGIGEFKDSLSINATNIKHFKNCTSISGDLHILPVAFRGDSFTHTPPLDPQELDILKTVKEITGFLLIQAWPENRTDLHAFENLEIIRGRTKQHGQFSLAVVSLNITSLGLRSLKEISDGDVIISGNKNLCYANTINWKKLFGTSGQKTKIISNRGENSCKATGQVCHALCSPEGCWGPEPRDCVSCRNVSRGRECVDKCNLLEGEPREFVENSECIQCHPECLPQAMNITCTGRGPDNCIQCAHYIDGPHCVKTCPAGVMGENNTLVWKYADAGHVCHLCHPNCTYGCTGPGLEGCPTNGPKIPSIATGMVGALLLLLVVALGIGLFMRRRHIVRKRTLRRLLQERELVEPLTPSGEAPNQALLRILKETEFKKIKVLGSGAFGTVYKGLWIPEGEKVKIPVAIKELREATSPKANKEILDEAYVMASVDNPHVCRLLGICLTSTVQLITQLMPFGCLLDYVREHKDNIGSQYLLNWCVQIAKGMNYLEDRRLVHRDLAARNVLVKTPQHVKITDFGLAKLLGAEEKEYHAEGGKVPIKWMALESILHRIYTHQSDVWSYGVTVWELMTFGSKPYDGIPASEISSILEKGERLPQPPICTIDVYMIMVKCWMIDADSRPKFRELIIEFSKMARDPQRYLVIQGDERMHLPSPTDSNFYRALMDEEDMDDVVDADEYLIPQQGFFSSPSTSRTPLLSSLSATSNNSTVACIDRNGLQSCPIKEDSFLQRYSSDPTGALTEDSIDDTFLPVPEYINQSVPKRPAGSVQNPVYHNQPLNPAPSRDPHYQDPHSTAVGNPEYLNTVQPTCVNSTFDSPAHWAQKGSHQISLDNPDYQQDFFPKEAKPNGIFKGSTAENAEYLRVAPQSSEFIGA
Procedure: as §1, §2

[1] = IC50 del19/T790M/C797S (nM) 100 μM ATP
[2] = IC50 L858R/T790M/C797S (nM) 100 μM ATP
[3] = IC50 del19/C797S (nM) 100 μM ATP
[4] = IC50 L858R/C797S (nM) 100 μM ATP

Chain of EGFR del19/T790M/C797S (P00533 with tags, fused parts or gaps DEL746-750/T790M/C797S): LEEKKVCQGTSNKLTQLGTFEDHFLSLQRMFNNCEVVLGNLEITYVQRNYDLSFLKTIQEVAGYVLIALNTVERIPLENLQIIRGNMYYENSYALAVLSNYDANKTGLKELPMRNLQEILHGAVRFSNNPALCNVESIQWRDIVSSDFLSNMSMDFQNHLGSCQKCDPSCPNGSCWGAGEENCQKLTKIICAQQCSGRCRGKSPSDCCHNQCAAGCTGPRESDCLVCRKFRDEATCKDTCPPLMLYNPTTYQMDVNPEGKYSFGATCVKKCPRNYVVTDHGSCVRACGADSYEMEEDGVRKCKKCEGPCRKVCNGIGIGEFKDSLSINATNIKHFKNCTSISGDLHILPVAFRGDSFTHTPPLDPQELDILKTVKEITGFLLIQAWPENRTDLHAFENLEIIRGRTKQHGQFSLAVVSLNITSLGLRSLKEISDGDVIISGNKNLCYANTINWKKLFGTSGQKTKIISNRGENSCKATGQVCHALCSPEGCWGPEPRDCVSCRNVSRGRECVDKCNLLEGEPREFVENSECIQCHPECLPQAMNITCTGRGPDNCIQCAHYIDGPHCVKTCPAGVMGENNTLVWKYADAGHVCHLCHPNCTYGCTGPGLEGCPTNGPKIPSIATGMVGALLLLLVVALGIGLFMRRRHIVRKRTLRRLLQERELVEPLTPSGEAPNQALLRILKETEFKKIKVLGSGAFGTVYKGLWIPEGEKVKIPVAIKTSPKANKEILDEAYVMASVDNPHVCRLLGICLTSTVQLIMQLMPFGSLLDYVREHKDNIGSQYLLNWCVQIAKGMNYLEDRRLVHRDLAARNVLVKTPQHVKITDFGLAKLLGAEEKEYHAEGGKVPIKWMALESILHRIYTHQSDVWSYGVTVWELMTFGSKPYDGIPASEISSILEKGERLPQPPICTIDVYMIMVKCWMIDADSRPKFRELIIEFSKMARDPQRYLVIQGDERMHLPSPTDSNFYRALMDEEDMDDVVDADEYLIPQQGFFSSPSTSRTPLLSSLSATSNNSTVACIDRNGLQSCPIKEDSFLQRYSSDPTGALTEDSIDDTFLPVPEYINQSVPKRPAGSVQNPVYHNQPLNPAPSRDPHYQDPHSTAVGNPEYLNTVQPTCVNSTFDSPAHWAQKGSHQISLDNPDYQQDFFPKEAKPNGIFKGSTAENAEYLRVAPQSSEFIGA

Row | Compound | IC50 (EGFR del19/T790M/C797S; [1]) | IC50 (EGFR L858R/T790M/C797S; [2]) | IC50 (EGFR del19/C797S; [3]) | IC50 (EGFR L858R/C797S; [4]) | IC50 (EGFR wildtype (WT); IC50 WT (nM) 100 μM ATP) | IC50 (EGFR del19/T790M/C797S; read-out: IC50 del19/T790M/C797S (nM) 100 μM ATP) | IC50 (EGFR L858R/T790M/C797S; read-out: IC50 L858R/T790M/C797S (nM) 100 μM ATP) | IC50 (EGFR del19/C797S; read-out: IC50 del19/C797S (nM) 100 μM ATP) | IC50 (EGFR L858R/C797S; read-out: IC50 L858R/C797S (nM) 100 μM ATP) | IC50 (EGFR wildtype (WT); read-out: IC50 WT (nM) 100 μM ATP)
1 | CC(O)C(C)(C)Nc1cc(Nc2ccnc(-c3cnn(S(=O)(=O)C4CC4)c3)n2)ncc1-c1ccn(C(F)F)n1 (stereo not shown) [Example 7, 3-((2-((2-(1-(Cyclopropylsulfonyl)-1H-pyrazol-4-yl)pyrimidin-4-yl)amino)-5-(1-(difluoromethyl)-1H-pyrazol-3-yl)pyridin-4-yl)amino)-3-methylbutan-2-ol] | 2.6 nM | 6 nM | 281 nM | 246 nM | > 10000 nM |  |  |  |  | 
2 | CC(C)(O)[C@H]1CC[C@@H](Nc2cc(Nc3ccnc(-c4cnn(S(=O)(=O)C5CC5)c4)n3)ncc2-c2ccn(C(F)F)n2)CC1 [Example 8, 2-((1s,4s)-4-((2-((2-(1-(Cyclopropylsulfonyl)-1H-pyrazol-4-yl)pyrimidin-4-yl)amino)-5-(1-(difluoromethyl)-1H-pyrazol-3-yl)pyridin-4-yl)amino)cyclohexyl)propan-2-ol] | 5.5 nM | 5.7 nM | 18.8 nM | 21.9 nM | > 10000 nM |  |  |  |  | 
3 | O=S(=O)(C1CC1)n1cc(-c2nccc(Nc3cc(N[C@H]4CC[C@@H](NCCF)CC4)c(-c4ccn(C(F)F)n4)cn3)n2)cn1 [Example 9, N^2-(2-(1-(Cyclopropylsulfonyl)-1H-pyrazol-4-yl)pyrimidin-4-yl)-5-(1-(difluoromethyl)-1H-pyrazol-3-yl)-N^4-((1s,4s)-4-((2-fluoroethyl)amino)cyclohexyl)pyridine-2,4-diamine] | 0.5 nM | 0.5 nM | 4.3 nM | 7.6 nM | 7100 nM |  |  |  |  | 
4 | O=S(=O)(C1CC1)n1cc(-c2nccc(Nc3cc(N[C@H]4CC[C@](O)(C(F)(F)F)CC4)c(-c4ccn(C(F)F)n4)cn3)n2)cn1 [Example 11, (1s,4s)-4-((2-((2-(1-(Cyclopropylsulfonyl)-1H-pyrazol-4-yl)pyrimidin-4-yl)amino)-5-(1-(difluoromethyl)-1H-pyrazol-3-yl)pyridin-4-yl)amino)-1-(trifluoromethyl)cyclohexan-1-ol] |  |  |  |  |  | 8.6 nM | 21.8 nM | 553 nM | 267 nM | > 10000 nM
5 | O=S(=O)(C1CC1)n1cc(-c2nccc(Nc3cc(N[C@@H]4CC[C@@H](O)C4)c(-c4ccn(C(F)F)n4)cn3)n2)cn1 [Example 12, (1R,3R)-3-((2-((2-(1-(Cyclopropylsulfonyl)-1H-pyrazol-4-yl)pyrimidin-4-yl)amino)-5-(1-(difluoromethyl)-1H-pyrazol-3-yl)pyridin-4-yl)amino)cyclopentan-1-ol] | 1.2 nM | 2.8 nM | 30 nM | 46.9 nM | > 10000 nM |  |  |  |  | 
6 | O=S(=O)(C1CC1)n1cc(-c2nccc(Nc3cc(N[C@@H]4CC[C@H](O)C4)c(-c4ccn(C(F)F)n4)cn3)n2)cn1 [Example 13, (1S,3R)-3-((2-((2-(1-(Cyclopropylsulfonyl)-1H-pyrazol-4-yl)pyrimidin-4-yl)amino)-5-(1-(difluoromethyl)-1H-pyrazol-3-yl)pyridin-4-yl)amino)cyclopentan-1-ol] | 0.7 nM | 1 nM | 3.8 nM | 12.4 nM | 5620 nM |  |  |  |  | 
7 | O=S(=O)(C1CC1)n1cc(-c2nccc(Nc3cc(N[C@H]4CC[C@@H](O)C4)c(-c4ccn(C(F)F)n4)cn3)n2)cn1 [Example 14, (1R,3S)-3-((2-((2-(1-(Cyclopropylsulfonyl)-1H-pyrazol-4-yl)pyrimidin-4-yl)amino)-5-(1-(difluoromethyl)-1H-pyrazol-3-yl)pyridin-4-yl)amino)cyclopentan-1-ol] | 0.6 nM | 0.9 nM | 4.9 nM | 14.2 nM | 7510 nM |  |  |  |  | 
8 | O=S(=O)(C1CC1)n1cc(-c2nccc(Nc3cc(NC4CCC(O)C4)c(-c4ccn(C(F)F)n4)cn3)n2)cn1 (stereo not shown) [Example 15, 3-((2-((2-(1-(Cyclopropylsulfonyl)-1H-pyrazol-4-yl)pyrimidin-4-yl)amino)-5-(1-(difluoromethyl)-1H-pyrazol-3-yl)pyridin-4-yl)amino)cyclopentan-1-ol] | 0.6 nM | 0.9 nM | 3.2 nM | 9.7 nM | > 10000 nM |  |  |  |  | 
